Test results as given in patent US5623080A, “Fluorone and pyronin Y derivatives” (Spectra Group Limited, Inc., priority 1995, dated 1997).

Legend:
[1] = double bond conversion (C=C% Conversion) by FTIR; conditions: DIDMA
Experimental: (§1) To a resin formulation consisting of 15 parts urethane diacrylate, 15 parts DPHPA, 20 parts TPGDA and 40 parts TMPTA was added DIDMA, initiator and (4-octyloxyphenyl)phenyliodonium hexafluoroantimonate (OPPI). The samples were coated to a thickness of 15 microns and exposed to a 75 W tungsten halogen dental lamp (focused through an optical fiber) at a distance of 0.75 inch at which the Light intensity was about 0.40 W/cm^2. The molar ratios are indicative of the amounts of fluorone to onium salt to amine coinitiator. The double bond conversion was determined by FTIR spectroscopy. The pencil hardness of a given test sample is measured by holding a pencil at a 45° angle to the sample and drawing across it towards the person testing it. Using the pencils in an order from softest to hardest, the first pencil that scratches the surface is assigned as the pencil hardness of the sample. The pencil hardness scale is as follows from softest to hardest: 4B, 3B, 2B, B, HB, H, 2H, 3H, 4H, 6H. For instance, if a 2H pencil is the first pencil to scratch the surface then the pencil hardness is 2H.
(§2) The foregoing study was repeated using 100% butanediol diacrylate, and 100% polyethylene glycol diacrylate (MW=400)(PEGA 400).

[2] = double bond conversion (C=C% Conversion) by FTIR; conditions: DIDMA; remark: listed apart in the source
Experimental: as §1, §2

[3] = double bond conversion (C=C% Conversion) by FTIR; conditions: 0.05 wt %; (1:2:3); NPG; 60 sec
pencil hardness = test: pencil hardness
Experimental: as §1
At the extreme ends of the scale, it is impossible to determine the actual pencil hardness. […] Likewise, if the 4B pencil scratches the sample, the only assignment that can be made is <4B, unless it is a lot softer than 4B in which case a <<4B can be assigned. A pencil hardness of 4H is generally considered satisfactory. Pencil hardness data was greater than 6H after 30 seocnd exposure for all samples except for the control samples without amine (1:2:0). The controls were all less than 4B an 0.05 wt %, 0.10 wt %, and 0.15 wt %.
Photosensitive compositions were prepared from the resin formulation of Example 35 containing 1% NPG and 0.05% DIBF or 0.05% DIEF. The samples were exposed under the conditions shown in the following table and pencil hardness was measured.
Diphenyliodonium hexafluoroantimonate was added to DIBF samples.
Samples were also prepared using 1% DIDMA in addition to the fluorone for a 20:1 weight ratio.
Samples were also prepared from the same resin formulation containing 0.1% DIBF in addition to the coinitiator listed in the following Table 9 with the exposure condition and pencil hardness results shown.
Using the resin formulation of Example 36, photosensitive compositions were prepared using TIHF, DIDMA and OPPI at a concentration of 0.21% and in the molar ratios shown in Table 10 which follows. Exposure was conducted with the dental lamp at a distance of 1 inch from the sample to provide an intensity of about 0.26 W/cm^2. Molar ratios are fluorone:onium salt:amine.

Compound: CCCCOc1ccc2cc3cc(I)c(=O)c(I)c-3oc2c1 [DIBF, 5,7-diiodo-3-butoxy-6-fluorone]
- C=C% Conversion ([1]; 0.05 wt %, (1:0:60), 60 sec): 50%
- C=C% Conversion ([1]; 0.05 wt %, (1:2:3), 60 sec): 61%
- C=C% Conversion ([1]; 0.10 wt %, (1:2:3), 60 sec): 90%
- C=C% Conversion ([1]; 0.15 wt %, (1:2:3), 10 sec): 60%
- C=C% Conversion ([1]; 0.15 wt %, (1:2:3), 30 sec): 84%
- C=C% Conversion ([1]; 0.15 wt %, (1:2:3), 60 sec): 90%
- C=C% Conversion ([2]; 0.05 wt %, (1:0:60), 30 sec): 30%
- C=C% Conversion ([2]; 0.05 wt %, (1:2:3), 30 sec): 49%
- C=C% Conversion ([2]; 0.10 wt %, (1:2:3), 30 sec): 56%
- C=C% Conversion ([2]; 0.10 wt %, (1:2:3), 60 sec): 56%
- C=C% Conversion ([2]; 0.15 wt %, (1:3:3), 30 sec): 58%
- C=C% Conversion [3]: 43%
- Pencil hardness (pencil hardness; 0.05 wt. % w/ 0.05 wt. % DPISbF6, Dental Lamp, Air, 60 sec): 2H
- Pencil hardness (pencil hardness; 0.05 wt. % w/ 0.05 wt. % DPISbF6, Dental Lamp, No Air, 10 sec): > 6H
- Pencil hardness (pencil hardness; 0.05 wt. % w/ 0.05 wt. % DPISbF6, Fusion (Q bulb), Air, 10 ft/min): > 6H
- Pencil hardness (pencil hardness; 0.05 wt. % w/ 0.05 wt. % DPISbF6, Fusion (Q bulb), Air, 20 ft/min): > 6H
- Pencil hardness (pencil hardness; 0.05 wt. %, 1% DIDMA, Dental Lamp, No Air, 10 sec): 5-6H
- Pencil hardness (pencil hardness; 0.05 wt. %, 1% DIDMA, Dental Lamp, No Air, 30 sec): > 6H
- Pencil hardness (pencil hardness; 0.05 wt. %, 1% DIDMA, Dental Lamp, No Air, 60 sec): > 6H
- Pencil hardness (pencil hardness; 0.05 wt. %, 1% DIDMA, Fusion (Q bulb), Air, 10 ft/min): > 6H
- Pencil hardness (pencil hardness; 0.05 wt. %, 1% DIDMA, Fusion (Q bulb), Air, 20 ft/min): 3H
- Pencil hardness (pencil hardness; 0.05 wt. %, 1% NPG, Dental Lamp, No Air, 10 sec): 4H
- Pencil hardness (pencil hardness; 0.05 wt. %, 1% NPG, Dental Lamp, No Air, 30 sec): > 6H
- Pencil hardness (pencil hardness; 0.05 wt. %, 1% NPG, Dental Lamp, No Air, 60 sec): > 6H
- Pencil hardness (pencil hardness; 0.05 wt. %, 1% NPG, Fusion (Q bulb), Air, 10 ft/min): > 6H
- Pencil hardness (pencil hardness; 0.05 wt. %, 1% NPG, Fusion (Q bulb), Air, 20 ft/min): 4H
- Pencil hardness (pencil hardness; 0.05 wt. %, 1% NPG, Overhead Proj., No Air, 60 sec): 5-6H
- Pencil hardness (pencil hardness; 0.1% DIBF, 1.5% DIDMA, Dental Lamp, No Air, 10 sec): > 6H
- Pencil hardness (pencil hardness; 0.1% DIBF, 1.5% DIDMA, Dental Lamp, No Air, 30 sec): > 6H
- Pencil hardness (pencil hardness; 0.1% DIBF, 1.5% DIDMA, Dental Lamp, No Air, 60 sec): > 6 h
- Pencil hardness (pencil hardness; 0.1% DIBF, 1.5% DIDMA, Fusion (Q bulb), Air, 10 ft/min): > 6H
- Pencil hardness (pencil hardness; 0.1% DIBF, 1.5% DIDMA, Fusion (Q bulb), Air, 20 ft/min): 5-6H
- Pencil hardness (pencil hardness; 0.1% DIBF, 1.5% NPG, Dental Lamp, No Air, 10 sec): 5-6H
- Pencil hardness (pencil hardness; 0.1% DIBF, 1.5% NPG, Dental Lamp, No Air, 30 sec): > 6H
- Pencil hardness (pencil hardness; 0.1% DIBF, 1.5% NPG, Dental Lamp, No Air, 60 sec): > 6 h
- Pencil hardness (pencil hardness; 0.1% DIBF, 1.5% NPG, Fusion (Q bulb), Air, 10 ft/min): > 6H
- Pencil hardness (pencil hardness; 0.1% DIBF, 1.5% NPG, Fusion (Q bulb), Air, 20 ft/min): 5-6H
- Pencil hardness (pencil hardness; 0.1% DIBF, 2% NPG, Dental Lamp, No Air, 10 sec): 5-6H
- Pencil hardness (pencil hardness; 0.1% DIBF, 2% NPG, Dental Lamp, No Air, 30 sec): > 6H
- Pencil hardness (pencil hardness; 0.1% DIBF, 2% NPG, Dental Lamp, No Air, 60 sec): > 6H
- Pencil hardness (pencil hardness; 0.1% DIBF, 2% NPG, Fusion (Q bulb), Air, 10 ft/min): > 6H
- Pencil hardness (pencil hardness; 0.1% DIBF, 2% NPG, Fusion (Q bulb), Air, 20 ft/min): 5-6H
- Pencil hardness (pencil hardness; Table 11, 0.05%, (1:0:60), DIDMA, 10 sec.): 4H
- Pencil hardness (pencil hardness; Table 11, 0.05%, (1:0:60), DIDMA, 60 sec.): > 6H
- Pencil hardness (pencil hardness; Table 11, 0.05%, (1:1:60), DIDMA, 10 sec.): > 6H
- Pencil hardness (pencil hardness; Table 11, 0.05%, (1:2:3), DIDMA, 60 sec.): > 6H
- Pencil hardness (pencil hardness; Table 11, 0.05%, (1:2:3), NPG, 60 sec.): > 6H
- Pencil hardness (pencil hardness; Table 11, 0.10%, (1:2:3), DIDMA, 60 sec.): > 6H
- Pencil hardness (pencil hardness; Table 11, 0.15%, (1:2:3), DIDMA, 60 sec.): > 6H
